Here are results for 22 compounds from patent US20240360165A1, “INHIBITORS OF CYCLIN DEPENDENT KINASE 7 (CDK7)” (Syros Pharmaceuticals, Inc., priority 2016, published 2024).

The structures appear in SMILES notation. Read-outs that look alike come from different tables or passages of the source.

For assay [1], the target named is CDK7/Cyclin H/MAT1 complex (Homo sapiens, UniProt P50613). The assay can be described thus: CDK7 inhibition assay (Caliper/LabChip EZ Reader kinase assay). The assay is classed as biochemical. The conditions noted are these: Table 1; CDK7/Cyclin H/MAT1 6 nM, ATP 2 mM, 35 min at 27° C. How it is done:
(§1) Compounds of the invention were assayed for inhibition of CDK7, CDK9, CDK12, and CDK2 activity at Biortus Biosciences (Jiangyin, Jiangsu Province, P.R. of China) using kinase assays for each CDK developed with a Caliper/LabChip EZ Reader (Perkin Elmer, Waltham, MA).
(§2) Furthermore, the CDK9 inhibition assay used CDK9/Cyclin T1 complex (8 nM) and “5-FAM-CDK9tide” peptide substrate (2 μM, synthesized fluorophore-labeled peptide with the following sequence: 5-FAM-GSRTPMY-NH2 where 5-FAM is defined above and NH2 signifies a C-terminal amide) with 10 mM MgCl2 in the buffer composition listed above. […] Additionally, the CDK2 inhibition assay used CDK2/Cyclin E1 complex (0.5 nM) and “5-FAM-CDK7tide” ([…]) as defined above, with 2 mM MgCl2 in the buffer composition listed above.

A further assay addresses CDK9/Cyclin T1 complex (Homo sapiens, UniProt P50750). Put plainly: CDK9 inhibition assay (Caliper/LabChip EZ Reader kinase assay). The assay is classed as biochemical. The note with it: Table 1; CDK9/Cyclin T1 8 nM, ATP 2 mM, 15 min at 27° C. On the procedure: as §1, §2
In the next assay the target is CDK2/Cyclin E1 complex (Homo sapiens, UniProt P24941). The assay can be described thus: CDK2 inhibition assay (Caliper/LabChip EZ Reader kinase assay). The assay is classed as biochemical. The conditions noted are these: Table 1; CDK2/Cyclin E1 0.5 nM, ATP 2 mM, 35 min at 27° C. On the procedure:
as §1, §2

The next assay has as its system A673 cells. The assay can be described thus: Inhibition of proliferation of A673 cells (CyQUANT, 72 hour). The assay is classed as cell-based, human. The note with it: A673 cells, 72 hour, CyQUANT, read-out: Inhibition of Proliferation of A673 Cells (calculated IC50). On the procedure:
A673 cells are a cell line derived from human […] Ewing's sarcoma. Representative compounds of the invention were tested at different concentrations (from […]; 0.5 log serial dilutions) for their ability to inhibit the proliferation of A673 cells. Known CDK inhibitors dinaciclib or N-((1S,3R)-3-((5-chloro-4-(1H-indol-3-yl)pyrimidin-2-yl)amino)cyclohexyl)-5-((E)-4-(dimethylamino)but-2-enamido)picolinamide and triptolide were used as positive controls. Cells were grown in Dulbecco's Modified Eagle's Medium, +10% FBS+1 mM Sodium Pyruvate. The cells were cultured at 37° C. in a humidified chamber in the presence of 5% CO2. Proliferation assays were conducted over a 72 hour time period. CyQUANT® (Life Technologies, Chicago, IL USA) was used to assess the anti-proliferative effects of the compounds following manufacturer's directions and utilizing the reagents supplied with the CyQUANT® kit.

The target in assay [2] is T1, CDK12 (aa686-1082)/Cyclin K complex (Homo sapiens, UniProt Q9NYV4).
T1 construct: CDK12 (aa686-1082)/Cyclin K complex
T1 sequence (Q9NYV4 686-1082, species assumed): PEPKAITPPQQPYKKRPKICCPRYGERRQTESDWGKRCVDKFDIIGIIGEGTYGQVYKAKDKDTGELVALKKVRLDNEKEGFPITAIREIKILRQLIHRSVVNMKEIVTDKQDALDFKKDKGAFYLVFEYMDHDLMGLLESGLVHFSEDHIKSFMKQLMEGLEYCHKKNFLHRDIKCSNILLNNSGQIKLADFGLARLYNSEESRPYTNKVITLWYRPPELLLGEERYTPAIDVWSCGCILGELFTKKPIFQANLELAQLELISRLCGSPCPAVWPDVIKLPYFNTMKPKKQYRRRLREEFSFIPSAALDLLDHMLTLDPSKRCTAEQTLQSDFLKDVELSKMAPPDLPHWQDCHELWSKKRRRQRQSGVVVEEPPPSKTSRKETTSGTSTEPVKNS
T1 sequence (O75909 whole entry partner, species assumed, the tested form may be a part): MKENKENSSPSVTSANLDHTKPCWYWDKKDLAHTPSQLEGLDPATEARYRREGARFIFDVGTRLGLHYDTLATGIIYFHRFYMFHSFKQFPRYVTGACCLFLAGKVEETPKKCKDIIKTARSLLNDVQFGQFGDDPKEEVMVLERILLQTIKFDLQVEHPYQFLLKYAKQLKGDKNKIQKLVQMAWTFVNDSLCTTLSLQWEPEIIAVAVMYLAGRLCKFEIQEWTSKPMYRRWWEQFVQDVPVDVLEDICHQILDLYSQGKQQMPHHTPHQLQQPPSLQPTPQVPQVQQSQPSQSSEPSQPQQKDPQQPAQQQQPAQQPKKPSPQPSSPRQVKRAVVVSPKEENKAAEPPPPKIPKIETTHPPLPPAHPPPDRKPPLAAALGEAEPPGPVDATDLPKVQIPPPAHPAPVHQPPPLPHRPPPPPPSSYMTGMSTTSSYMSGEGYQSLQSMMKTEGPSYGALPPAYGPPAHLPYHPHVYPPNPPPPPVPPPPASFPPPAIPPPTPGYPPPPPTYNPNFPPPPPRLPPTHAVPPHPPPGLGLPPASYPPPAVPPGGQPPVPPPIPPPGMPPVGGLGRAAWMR
Put plainly: CDK12 inhibition assay (Caliper/LabChip EZ Reader kinase assay). The assay is classed as biochemical. The conditions noted are these: Table 1; CDK12 (aa686-1082)/Cyclin K 50 nM, ATP 2 mM, 3 hr at 27° C. How it is done:
as §1, §2

Chain of CDK9/Cyclin T1 complex (P50750 whole entry, species assumed): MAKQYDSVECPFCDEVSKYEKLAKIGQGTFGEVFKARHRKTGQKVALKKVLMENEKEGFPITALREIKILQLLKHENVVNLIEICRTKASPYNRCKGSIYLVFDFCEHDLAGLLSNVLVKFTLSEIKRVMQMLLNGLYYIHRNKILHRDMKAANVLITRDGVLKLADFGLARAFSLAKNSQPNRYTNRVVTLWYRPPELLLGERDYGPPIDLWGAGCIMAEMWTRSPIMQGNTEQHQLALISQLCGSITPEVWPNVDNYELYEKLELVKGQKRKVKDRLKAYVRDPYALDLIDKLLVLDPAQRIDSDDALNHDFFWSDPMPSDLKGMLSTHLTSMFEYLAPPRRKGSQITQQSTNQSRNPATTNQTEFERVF
Chain of CDK9/Cyclin T1 complex (O60563 whole entry partner, species assumed): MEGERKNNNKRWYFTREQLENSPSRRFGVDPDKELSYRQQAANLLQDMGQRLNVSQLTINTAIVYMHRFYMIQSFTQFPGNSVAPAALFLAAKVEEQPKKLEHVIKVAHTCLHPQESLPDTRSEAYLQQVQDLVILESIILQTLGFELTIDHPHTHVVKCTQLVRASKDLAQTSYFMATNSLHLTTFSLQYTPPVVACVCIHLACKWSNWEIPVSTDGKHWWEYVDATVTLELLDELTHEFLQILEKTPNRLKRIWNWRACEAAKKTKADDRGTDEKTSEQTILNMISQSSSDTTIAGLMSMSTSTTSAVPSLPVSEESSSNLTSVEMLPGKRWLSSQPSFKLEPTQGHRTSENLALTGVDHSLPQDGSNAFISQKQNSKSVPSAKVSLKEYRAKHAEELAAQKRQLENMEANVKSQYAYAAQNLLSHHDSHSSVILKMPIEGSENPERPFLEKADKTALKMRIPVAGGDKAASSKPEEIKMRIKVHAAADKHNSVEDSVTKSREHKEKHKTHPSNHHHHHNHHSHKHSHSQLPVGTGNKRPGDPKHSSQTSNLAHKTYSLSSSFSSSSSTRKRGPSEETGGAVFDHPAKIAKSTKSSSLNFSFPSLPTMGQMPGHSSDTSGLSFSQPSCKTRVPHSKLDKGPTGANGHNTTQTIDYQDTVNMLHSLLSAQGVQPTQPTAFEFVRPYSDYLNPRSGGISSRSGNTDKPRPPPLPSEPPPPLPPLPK
Chain of CDK7/Cyclin H/MAT1 complex (P50613 whole entry, species assumed): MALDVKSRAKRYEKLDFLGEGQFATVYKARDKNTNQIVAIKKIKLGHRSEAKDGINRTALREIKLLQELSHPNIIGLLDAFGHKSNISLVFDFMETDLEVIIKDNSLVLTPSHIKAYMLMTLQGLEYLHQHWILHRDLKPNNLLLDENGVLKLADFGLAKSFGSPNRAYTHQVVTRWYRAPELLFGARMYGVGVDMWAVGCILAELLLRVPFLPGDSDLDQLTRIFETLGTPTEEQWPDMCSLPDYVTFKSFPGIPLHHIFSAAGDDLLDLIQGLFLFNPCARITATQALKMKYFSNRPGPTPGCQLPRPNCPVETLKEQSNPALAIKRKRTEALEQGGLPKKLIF
Chain of CDK7/Cyclin H/MAT1 complex (P51946 whole entry partner, species assumed): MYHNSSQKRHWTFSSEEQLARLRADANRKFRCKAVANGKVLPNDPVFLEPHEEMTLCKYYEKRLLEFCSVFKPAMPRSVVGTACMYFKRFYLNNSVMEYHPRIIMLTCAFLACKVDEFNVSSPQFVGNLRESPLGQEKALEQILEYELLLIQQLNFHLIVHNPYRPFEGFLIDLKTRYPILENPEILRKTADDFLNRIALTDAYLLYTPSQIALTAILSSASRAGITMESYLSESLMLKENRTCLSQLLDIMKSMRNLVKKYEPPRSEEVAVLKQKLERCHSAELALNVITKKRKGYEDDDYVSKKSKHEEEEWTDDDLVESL
Chain of CDK7/Cyclin H/MAT1 complex (P51948 whole entry partner, species assumed): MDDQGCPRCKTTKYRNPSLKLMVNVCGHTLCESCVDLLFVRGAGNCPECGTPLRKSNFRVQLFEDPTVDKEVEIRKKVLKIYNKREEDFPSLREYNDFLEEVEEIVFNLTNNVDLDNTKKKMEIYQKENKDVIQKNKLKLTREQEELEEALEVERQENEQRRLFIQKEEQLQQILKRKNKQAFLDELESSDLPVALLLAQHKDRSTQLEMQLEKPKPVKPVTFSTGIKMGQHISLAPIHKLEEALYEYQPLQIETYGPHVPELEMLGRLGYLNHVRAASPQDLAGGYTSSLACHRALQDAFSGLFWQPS

For `c1ccc2c(-c3nc(N[C@H]4CCCNC4)ncc3C3CC3)c[nH]c2c1` [Compound 135], the IC50 is 20 to 200 nM in assay [1]; over 5 µM on CDK9/Cyclin T1 complex; over 5 µM on CDK2/Cyclin E1 complex; 200 to 5000 nM with A673 cells (Homo sapiens, A673, 72 h); over 5000 nM in assay [2].

`CN1CCC[C@H](Nc2ncc(Cl)c(-c3c[nH]c4ccccc34)n2)C1` [Compound 136]: the IC50 in assay [1] was under 20 nM; against CDK9/Cyclin T1 complex, 0.2 to 5 µM; against CDK2/Cyclin E1 complex, 0.2 to 5 µM; in the assay on A673 cells (Homo sapiens, A673, 72 h) it was 20 to 200 nM; in assay [2], 200 to 5000 nM.

In the case of `CCc1cnc(N[C@H]2CCCNC2)nc1-c1n[nH]c2c(F)cccc12` [Compound 143, (S)-5-ethyl-4-(7-fluoro-1H-indazol-3-yl)-N-(piperidin-3-yl)pyrimidin-2-amine], the IC50 is under 20 nM in assay [1]; 0.2 to 5 µM on CDK9/Cyclin T1 complex; 0.2 to 5 µM at CDK2/Cyclin E1 complex; under 20 nM in the assay with A673 cells (Homo sapiens, A673, 72 h); 200 to 5000 nM in assay [2].

Take `CC(C)CN1CCC[C@H](Nc2ncc(Cl)c(-c3c[nH]c4ccccc34)n2)C1` [Compound 145]: the IC50 in assay [1] was 20 to 200 nM; on CDK9/Cyclin T1 complex it was over 5 µM; against CDK2/Cyclin E1 complex, over 5 µM; in the assay with A673 cells (Homo sapiens, A673, 72 h), 200 to 5000 nM; in assay [2] it was 200 to 5000 nM.

As for `Ic1cnc(N[C@H]2CCCNC2)nc1-c1c[nH]c2ccccc12` [Compound 147], the IC50 in assay [1] is under 20 nM; on CDK9/Cyclin T1 complex, 0.2 to 5 µM; at CDK2/Cyclin E1 complex, 0.02 to 0.2 µM; in the assay with A673 cells, under 20 nM; in assay [2], 200 to 5000 nM.

Take `CC(C)N1CCC[C@H](Nc2ncc(Cl)c(-c3c[nH]c4ccccc34)n2)C1` [Compound 148]: the IC50 was 20 to 200 nM in assay [1]; 0.2 to 5 µM on CDK9/Cyclin T1 complex; over 5 µM on CDK2/Cyclin E1 complex; 20 to 200 nM in the assay on A673 cells (Homo sapiens, A673, 72 h); 200 to 5000 nM in assay [2].

With `COCCN1CCC[C@H](Nc2ncc(Cl)c(-c3c[nH]c4ccccc34)n2)C1` [Compound 149], the IC50 in assay [1] was 20 to 200 nM; on CDK9/Cyclin T1 complex, 0.2 to 5 µM; against CDK2/Cyclin E1 complex it was 0.2 to 5 µM; in the assay with A673 cells, 20 to 200 nM; in assay [2] it was 200 to 5000 nM.

For `N#Cc1cnc(N[C@H]2CCCNC2)nc1-c1c[nH]c2ccccc12` [Compound 157], the IC50 in assay [1] was under 20 nM; on CDK9/Cyclin T1 complex, 0.2 to 5 µM; on CDK2/Cyclin E1 complex, 0.2 to 5 µM; in the assay on A673 cells (Homo sapiens, A673, 72 h) it was under 20 nM; in assay [2], 200 to 5000 nM.

`CCOP(=O)(OCC)c1cccc2c(-c3nc(N[C@H]4CCCNC4)ncc3C(F)(F)F)c[nH]c12` [Compound 168]: the IC50 was 200 to 5000 nM in assay [1]; over 5 µM against CDK9/Cyclin T1 complex; over 5 µM against CDK2/Cyclin E1 complex; 200 to 5000 nM in the assay with A673 cells (Homo sapiens); over 5000 nM in assay [2].

As for `Cc1nn(C)cc1-c1cccc2c(-c3nc(N[C@H]4CCCNC4)ncc3C(F)(F)F)c[nH]c12` [Compound 171], the IC50 in assay [1] was under 20 nM; against CDK9/Cyclin T1 complex it was 0.2 to 5 µM; against CDK2/Cyclin E1 complex it was 0.2 to 5 µM; with A673 cells (Homo sapiens, A673, 72 h), under 20 nM; in assay [2], 200 to 5000 nM.

With `Cc1cn(-c2cccc3c(-c4nc(N[C@H]5CCCNC5)ncc4C(F)(F)F)c[nH]c23)cn1` [Compound 172], the IC50 in assay [1] is under 20 nM; at CDK9/Cyclin T1 complex, 0.2 to 5 µM; on CDK2/Cyclin E1 complex, 0.2 to 5 µM; in the assay with A673 cells (Homo sapiens, A673, 72 h), under 20 nM; in assay [2] it was 200 to 5000 nM.

Take `CCOP(C)(=O)c1cccc2c(-c3nc(N[C@H]4CCCNC4)ncc3C(F)(F)F)c[nH]c12` (some centres unmarked) [Compound 179]: the IC50 in assay [1] is under 20 nM; against CDK9/Cyclin T1 complex, 0.2 to 5 µM; on CDK2/Cyclin E1 complex, 0.2 to 5 µM; in the assay with A673 cells (Homo sapiens), under 20 nM; in assay [2], 200 to 5000 nM.

With `Fc1cc2[nH]cc(-c3nc(N[C@H]4CCCNC4)ncc3C(F)(F)F)c2cc1F` [Compound 184], the IC50 in assay [1] is under 20 nM; against CDK9/Cyclin T1 complex, 0.02 to 0.2 µM; on CDK2/Cyclin E1 complex it was 0.02 to 0.2 µM; in the assay with A673 cells it was under 20 nM; in assay [2] it was 20 to 200 nM.

For `COc1cnc(N[C@H]2CCCNC2)nc1-c1c[nH]c2ccccc12` [Compound 189], the IC50 was 200 to 5000 nM in assay [1]; over 5 µM against CDK9/Cyclin T1 complex; over 5 µM on CDK2/Cyclin E1 complex; 200 to 5000 nM in the assay with A673 cells; over 5000 nM in assay [2].

Regarding `CC(C)(O)CCc1cccc2c(-c3nc(N[C@H]4CCCNC4)ncc3C(F)(F)F)c[nH]c12` [Compound 191], the IC50 was under 20 nM in assay [1]; 0.2 to 5 µM against CDK9/Cyclin T1 complex; 0.2 to 5 µM at CDK2/Cyclin E1 complex; under 20 nM in the assay on A673 cells; 200 to 5000 nM in assay [2].

For the compound `C#Cc1cnc(N[C@H]2CCCNC2)nc1-c1c[nH]c2ccccc12` [Compound 194], the IC50 in assay [1] is under 20 nM; against CDK9/Cyclin T1 complex, 0.2 to 5 µM; on CDK2/Cyclin E1 complex, 0.2 to 5 µM; with A673 cells (Homo sapiens, A673, 72 h) it was under 20 nM; in assay [2], 200 to 5000 nM.

With `C#Cc1cnc(N[C@H]2CCCNC2)nc1-c1cn(C)c2ccccc12` [Compound 195], the IC50 in assay [1] is 200 to 5000 nM; against CDK9/Cyclin T1 complex it was over 5 µM; at CDK2/Cyclin E1 complex, over 5 µM; in the assay on A673 cells it was 20 to 200 nM; in assay [2] it was over 5000 nM.

As for `O=S1(=O)CCN(c2cccc3c(-c4nc(N[C@H]5CCCNC5)ncc4Cl)c[nH]c23)CC1` [Compound 196, 5-chloro-4-[7-(1,1-dioxo-1,4-thiazinan-4-yl)-1H-indol-3-yl]-N-[(3S)-3-piperidyl]pyrimidin-2-amine], the IC50 in assay [1] is under 20 nM; against CDK9/Cyclin T1 complex it was 0.2 to 5 µM; against CDK2/Cyclin E1 complex it was 0.2 to 5 µM; in the assay on A673 cells (Homo sapiens, A673, 72 h) it was 20 to 200 nM; in assay [2], 200 to 5000 nM.

In the case of `N#Cc1cc2[nH]cc(-c3nc(N[C@H]4CCCNC4)ncc3C(F)(F)F)c2cc1F` [Compound 197, 5-fluoro-3-[2-[[(3S)-3-piperidyl]amino]-5-(trifluoromethyl)pyrimidin-4-yl]-1H-indole-6-carbonitrile], the IC50 in assay [1] was under 20 nM; against CDK9/Cyclin T1 complex it was 0.2 to 5 µM; at CDK2/Cyclin E1 complex, 0.2 to 5 µM; with A673 cells (Homo sapiens, A673, 72 h), under 20 nM; in assay [2], 200 to 5000 nM.

Regarding `OC1CC=C(c2cccc3c(-c4nc(N[C@H]5CCCNC5)ncc4C(F)(F)F)c[nH]c23)CC1` (some centres unmarked) [Compound 198], the IC50 in assay [1] was under 20 nM; against CDK9/Cyclin T1 complex it was 0.2 to 5 µM; on CDK2/Cyclin E1 complex it was 0.2 to 5 µM; in the assay on A673 cells, under 20 nM; in assay [2] it was 200 to 5000 nM.

With `CNS(=O)(=O)c1ccc2c(-c3nc(N[C@H]4CCCNC4)ncc3C(F)(F)F)c[nH]c2c1` [Compound 200, N-methyl-3-[2-[[(3S)-3-piperidyl]amino]-5-(trifluoromethyl)pyrimidin-4-yl]-1H-indole-6-sulfonamide], the IC50 was under 20 nM in assay [1]; 0.2 to 5 µM against CDK9/Cyclin T1 complex; 0.2 to 5 µM against CDK2/Cyclin E1 complex; 20 to 200 nM in the assay on A673 cells (Homo sapiens, A673, 72 h); 200 to 5000 nM in assay [2].

`C[C@H]1CNC[C@@H](Nc2ncc(Cl)c(-c3c[nH]c4ccccc34)n2)C1` [Compound 201, 5-chloro-4-(1H-indol-3-yl)-N-[(3S,5R)-5-methyl-3-piperidyl]pyrimidin-2-amine]: the IC50 in assay [1] was under 20 nM; on CDK9/Cyclin T1 complex, 0.2 to 5 µM; against CDK2/Cyclin E1 complex, 0.2 to 5 µM; with A673 cells (Homo sapiens, A673, 72 h) it was under 20 nM; in assay [2], 20 to 200 nM.
